Where two headings read alike, the source gives them in different places. Where a SMILES comes first, the peptide text is derived from it. [ ]: non-standard residue; d: D form. The star is where a group is joined. ClZ = O=C(OCc1ccccc1Cl)*; Cbz = O=C(OCc1ccccc1)*
What was measured:
GADD45β/MKK7 complex = target: T1, GADD45β/MKK7 complex (Homo sapiens, UniProt O14733); test: ELISA GADD45β/MKK7 competition assay; type: binding
T1 construct: Full-length human (h)MKK7 was expressed as a protein fused to an N-terminal GST tag (GST-MKK7); made in house
T1 sequence (O14733 1-419): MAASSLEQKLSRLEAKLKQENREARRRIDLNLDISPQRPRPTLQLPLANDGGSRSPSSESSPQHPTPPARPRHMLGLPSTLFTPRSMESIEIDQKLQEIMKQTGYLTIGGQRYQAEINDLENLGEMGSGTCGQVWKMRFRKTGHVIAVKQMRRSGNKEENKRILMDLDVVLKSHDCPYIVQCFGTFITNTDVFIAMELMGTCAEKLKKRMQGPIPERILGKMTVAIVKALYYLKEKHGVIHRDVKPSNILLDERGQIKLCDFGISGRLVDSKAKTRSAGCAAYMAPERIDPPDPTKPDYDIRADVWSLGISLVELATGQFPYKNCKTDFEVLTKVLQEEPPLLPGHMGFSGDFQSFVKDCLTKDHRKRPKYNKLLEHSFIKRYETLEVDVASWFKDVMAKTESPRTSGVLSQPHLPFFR
Excerpt: Additional details are provided in Supplemental Experimental Procedures.
(1:1,000) and the HRP chromogenic substrate, o -phenylenediamine (OPD). GST -coated wells wer e […]
The ELISA competition screen used f or the isolation of antagonists of the GADD45β /MKK7 […]
The library deconvolution strategy used for this screen was described previously […]
General information about this type of screens can be found elsewhere […]
Values were expressed as the percentage of inhibition of His6-hGADD45β binding to GST-hMKK7 relative to the binding measured in the absence of […]
Dose-response, ELISA GADD45β /MKK7 competition assays were carried out under similar […]
As part of the SAR analysis and lead optimization process, where appropriate, competitors were tested at a concentration up to 100 nM. In order to determine their stability in biolog ical f luids , peptides were incubated at the concentration of 10 µM in […]
calculated using at least 7 concentrations of peptide and def ined as the mean concentration of peptide […]
the absence of competitor. W here indicated, values were expressed as the percentage of inhibition of His 6 -hGADD45β binding to GST-hMKK7 relative to the binding measured in the absence of competitor.
GST was used as a control in all the experiments. […]
tetrapeptide used as negative control in some of the ELISA and cellular assays was as f ollows: z -DNC, z-T yr -Asp-His-Gln-NH 2 . […]

U266 MM cells = details: read-out: IC50 (U266 cells); Table S3; day 6; [3H]thymidine incorporation or trypan blue exclusion
[1] = pharmacokinetics after single intravenous injection
Experimental: The pharmacokinetic analyses of DTP3 and z-DTP2 were outsourced. Additional details are provided in Supplemental Experimental Procedures. […]
Pharmacokinetic Anal yses
In vitro and in vivo pharmacok inetic analyses were outsourced to Cypr ot ex (http://www.c yprotex.com/home/) (Figure 7A, Tables S6). In vitro pharmacok inetic assays were perf ormed according to established, in- house protocols and included: plasma stability (human), thermodynamic solubility (PBS pH 7.4, at 37 °C f or 14 days), microsomal stability (human), plasma protein binding (PPB; mouse and human), and distribution coeff icient (LogD). In vivo pharmacok inetic […]
analyses were also perf ormed at Cyprotex according to established, in- house protocols. Brief ly, the peptides were dissolved in PBS and administered by single intravenous injection t o CD1 male mice at the dose of 10 mg/kg (25 -30 g of total body weight; n=3 mice per time point per compound) . Blood samples were collected in heparinized tubes at up to 7 tim e points after this injection (i.e. 0.08, 0.25, 0.5, 1, 2, 4 and 8 hr), and the plasma concentrations of the test peptide were determined at each time point by LC-MS/ MS, using a f ive- point standard curve covering a peptide concentration range from 3 to 3,000 ng/mL. Standard curves were prepared using blank plasma matrices and treated in the same manner as the test samples. The main pharmacok inetic parameters determined in these analyses were: terminal half-lif e (t 1/2 ), plasma clearance (CL), volume of distribution (V d ), and area under the plasma concentration versus time curve (AUC) (Figure 7A, Table S6). Values were calculated from the data of the peptide plasma concentration versus time curves using a non-compartmental model analysis, as described elsewhere (Groulx, 2006; Landaw and Di Stef ano 3rd, 1982) . […]

aqueous solubility = type: physicochemical
[2] = Table S3, peptide at 10 nM, read-out: % inhibition (ELISA)
[3] = Table S3, read-out: IC50 (ELISA)
[4] = read-out: % inhibition of (ELISA)
[5] = Table S2, peptide at 42 nM, read-out: % inhibition (ELISA)
[6] = Table S4, read-out: IC50s (ELISA)
[7] = Table S4, values marked (#), peptide at 42 nM, read-out: % inhibition of (ELISA)

CCCCCCCCCCCCCC(=O)N[C@H](Cc1ccc(O)cc1)C(=O)N[C@H](CC(=O)O)C(=O)N[C@H](Cc1c[nH]cn1)C(=O)N[C@H](CCC(N)=O)C(N)=O [Myr-YDHQ-NH2]
inhibition at 0.01 µM (GADD45β/MKK7 complex; [2]): 28% | IC50 (GADD45β/MKK7 complex; [3]): > 10 nM | IC50 (U266 MM cells): > 10000 nM

N=C(N)NCCC[C@@H](NC(=O)[C@@H](CCC(=O)O)NC(=O)[C@@H](Cc1ccc(O)cc1)NC(=O)OCc1ccccc1)C(=O)N[C@H](Cc1ccccc1)C(N)=O [z-DTP2, z-YERF-NH2] (Cbz-[dY][dE][dR][dF]-NH2)
inhibition at 0.01 µM (GADD45β/MKK7 complex; [2]): 95% | predicted dose required to achieve the therapeutic plasma concentration of 1 μM at the steady state ([1]; k0 = k1 x Vd x Cp): 3.61 mg/kg/h | AUC ([1]; mouse, in vivo, iv, 10 mg/kg): 2060 ± 250 ng·h/mL | Vd ([1]; mouse, in vivo, iv, 10 mg/kg): 14.6 ± 2.23 L/kg | clearance ([1]; mouse, in vivo, iv, 10 mg/kg): 78.1 ± 11.7 mL/min/kg | half-life ([1]; mouse, in vivo, iv, 10 mg/kg): 2.09 ± 0.07 h

NC(=O)CC[C@@H](NC(=O)[C@@H](Cc1c[nH]cn1)NC(=O)[C@@H](CC(=O)O)NC(=O)[C@@H](Cc1ccc(O)cc1)NC(=O)c1ccccc1)C(N)=O [Benzoyl-YDHQ-NH2]
IC50 (GADD45β/MKK7 complex): > 10 nM | inhibition at 0.01 µM (GADD45β/MKK7 complex; read-out: % inhibition (ELISA)): 1% | inhibition at 0.01 µM (GADD45β/MKK7 complex; [4]): 0% | IC50 (U266 MM cells): > 10000 nM

N=C(N)NCCC[C@@H](NC(=O)[C@@H](CCC(=O)O)NC(=O)[C@@H](Cc1ccc(O)cc1)NC(=O)c1ccccc1)C(=O)N[C@H](Cc1ccccc1)C(N)=O [Benzoyl-YERF-NH2]
IC50 (GADD45β/MKK7 complex): > 10 nM | inhibition at 0.01 µM (GADD45β/MKK7 complex; read-out: % inhibition (ELISA)): 24% | IC50 (U266 MM cells): > 10000 nM

CCCCCCCCCCCCCC(=O)N[C@H](Cc1ccc(O)cc1)C(=O)N[C@H](CC(=O)O)C(=O)N[C@H](Cc1c[nH]cn1)C(=O)N[C@H](Cc1ccccc1)C(N)=O [Myr-YDHF-NH2]
inhibition at 0.01 µM (GADD45β/MKK7 complex; [2]): 26% | IC50 (GADD45β/MKK7 complex; [3]): > 10 nM | IC50 (U266 MM cells): > 10000 nM

CCCCCCCCCCCCCC(=O)N[C@H](Cc1ccc(O)cc1)C(=O)N[C@H](CCC(=O)O)C(=O)N[C@H](CCCNC(=N)N)C(=O)N[C@H](Cc1ccccc1)C(N)=O [Myr-YERF-NH2]
inhibition at 0.01 µM (GADD45β/MKK7 complex; [2]): 37% | IC50 (GADD45β/MKK7 complex; [3]): > 10 nM | IC50 (U266 MM cells): > 10000 nM

CC(=O)N[C@@H](Cc1c[nH]c2ccccc12)C(=O)N[C@@H](CC(=O)O)C(=O)N[C@@H](CCCNC(=N)N)C(=O)N[C@@H](Cc1c[nH]c2ccccc12)C(N)=O [Ac-WDRW-NH2] (Ac-WDRW-NH2)
inhibition at 0.042 µM (GADD45β/MKK7 complex; [5]): 93% | IC50 (GADD45β/MKK7 complex; [6]): < 42 nM | aqueous solubility (aqueous solubility): low

CC(=O)N[C@@H](Cc1c[nH]c2ccccc12)C(=O)N[C@@H](CC(=O)O)C(=O)N[C@@H](Cc1c[nH]cn1)C(=O)N[C@@H](Cc1ccccc1)C(N)=O [Ac-WDHF-NH2] (Ac-WDHF-NH2)
inhibition at 0.042 µM (GADD45β/MKK7 complex; [5]): 28% | IC50 (GADD45β/MKK7 complex; [6]): > 42 nM

N=C(N)NCCC[C@@H](NC(=O)[C@H](N)Cc1ccc(O)cc1)C(=O)N[C@H](Cc1ccc(O)cc1)C(N)=O [H-YRY-NH2]
IC50 (GADD45β/MKK7 complex; [6]): 0.75 nM

NC(=O)[C@@H](Cc1ccccc1)NC(=O)[C@@H](Cc1c[nH]cn1)NC(=O)[C@@H](CC(=O)O)NC(=O)[C@@H](Cc1ccc(O)cc1)NC(=O)c1ccccc1 [Benzoyl-YDHF-NH2]
IC50 (GADD45β/MKK7 complex): > 10 nM | inhibition at 0.01 µM (GADD45β/MKK7 complex; read-out: % inhibition (ELISA)): 0% | inhibition at 0.01 µM (GADD45β/MKK7 complex; [4]): 1% | IC50 (U266 MM cells): > 10000 nM

CC(=O)N[C@@H](Cc1ccc(O)cc1)C(=O)N[C@@H](CCC(=O)O)C(=O)N[C@@H](CCCCN)C(=O)N[C@@H](Cc1c[nH]c2ccccc12)C(N)=O [Ac-YEKW-NH2] (Ac-YEKW-NH2)
inhibition at 0.042 µM (GADD45β/MKK7 complex; [5]): 22% | IC50 (GADD45β/MKK7 complex; [6]): > 42 nM

CC(=O)N[C@H](Cc1ccc(O)cc1)C(=O)N1CCC[C@@H]1C(=O)N[C@H](CCCNC(=N)N)C(=O)N[C@H](Cc1ccccc1)C(N)=O [Ac-YPRF-NH2] (Ac-[dY][dP][dR][dF]-NH2)
inhibition at 0.042 µM (GADD45β/MKK7 complex; [7]): 13%

N=C(N)NCCC[C@@H](NC(=O)[C@@H](CCC(=O)O)NC(=O)[C@@H](Cc1ccc(O)cc1)NC(=O)OCc1ccccc1Cl)C(=O)N[C@H](Cc1ccccc1)C(N)=O [2CI-z-YERF-NH2] (ClZ-[dY][dE][dR][dF]-NH2)
inhibition at 0.01 µM (GADD45β/MKK7 complex; [2]): 38% | IC50 (GADD45β/MKK7 complex; [3]): > 10 nM

NC(=O)CC[C@@H](NC(=O)[C@@H](Cc1c[nH]cn1)NC(=O)[C@@H](CC(=O)O)NC(=O)[C@@H](Cc1ccc(O)cc1)NC(=O)OCc1ccccc1Cl)C(N)=O [2CI-z-YDHQ-NH2] (ClZ-[dY][dD][dH][dQ]-NH2)
inhibition at 0.01 µM (GADD45β/MKK7 complex; [2]): 40% | IC50 (GADD45β/MKK7 complex; [3]): > 10 nM

CC(=O)N[C@H](Cc1ccc(O)cc1)C(=O)N[C@H](CC(=O)O)C(=O)N[C@H](Cc1c[nH]cn1)C(=O)N[C@H](CCC(N)=O)C(=O)N[C@H](CCCCNC(=O)OCc1ccccc1)C(N)=O [Ac-YDHQK(εZ)-NH2] (Ac-[dY][dD][dH][dQ][dK](Cbz)-NH2)
inhibition at 0.01 µM (GADD45β/MKK7 complex; [2]): 2% | IC50 (GADD45β/MKK7 complex; [3]): > 10 nM

Ac-WDRF-NH2
% inhibition (ELISA) (GADD45β/MKK7 complex; Table S2, peptide at 42 nM): 45%

CC(=O)N[C@@H](Cc1c[nH]c2ccccc12)C(=O)N[C@@H](CC(=O)O)C(=O)N[C@@H](CCCCN)C(=O)N[C@@H](Cc1c[nH]c2ccccc12)C(N)=O [Ac-WDKW-NH2] (Ac-WDKW-NH2)
inhibition at 0.042 µM (GADD45β/MKK7 complex; [5]): 69% | IC50 (GADD45β/MKK7 complex; [6]): < 42 nM

CC(=O)N[C@@H](Cc1c[nH]c2ccccc12)C(=O)N[C@@H](CCC(=O)O)C(=O)N[C@@H](Cc1c[nH]cn1)C(=O)N[C@@H](Cc1c[nH]c2ccccc12)C(N)=O [Ac-WEHW-NH2] (Ac-WEHW-NH2)
inhibition at 0.042 µM (GADD45β/MKK7 complex; [5]): 75% | IC50 (GADD45β/MKK7 complex; [6]): < 42 nM

NC(=O)CC[C@@H](NC(=O)[C@@H](Cc1c[nH]cn1)NC(=O)[C@@H](CC(=O)O)NC(=O)[C@@H](Cc1ccc(O)cc1)NC(=O)OCC1c2ccccc2-c2ccccc21)C(N)=O [Fmoc-YDFQ-NH2]
inhibition at 0.01 µM (GADD45β/MKK7 complex; [2]): 19%

CC(=O)N[C@@H](Cc1c[nH]c2ccccc12)C(=O)N[C@@H](CCC(=O)O)C(=O)N[C@@H](CCCNC(=N)N)C(=O)N[C@@H](Cc1c[nH]c2ccccc12)C(N)=O [Ac-WERW-NH2] (Ac-WERW-NH2)
inhibition at 0.042 µM (GADD45β/MKK7 complex; [5]): 64% | IC50 (GADD45β/MKK7 complex; [6]): < 42 nM | inhibition at 0.042 µM (GADD45β/MKK7 complex; [7]): 69%

CC(=O)N[C@H](Cc1ccc(O)cc1)C(=O)N[C@H](CCC(=O)O)C(=O)N[C@H](CCCNC(=N)N)C(=O)N[C@H](Cc1ccccc1)C(=O)N[C@H](CCCCNC(=O)OCc1ccccc1)C(N)=O [Ac-YERFK(εZ)-NH2] (Ac-[dY][dE][dR][dF][dK](Cbz)-NH2)
inhibition at 0.01 µM (GADD45β/MKK7 complex; [2]): 6% | IC50 (GADD45β/MKK7 complex; [3]): > 10 nM

Source: article PMC4197335, “Cancer-Selective Targeting of the NF-κB Survival Pathway with GADD45β/MKK7 Inhibitors” (Cancer Cell, 2014)
